Values quoted from earlier work in patent US20040077591A1, “Histone deacetylase inhibitors for the treatment of multiple sclerosis, amyotrophic lateral sclerosis and Alzheimer's Disease” (The Brigham and Women's Hospital, Inc., priority 2002, published 2004).

What was measured:
SMA lymphoid cell lines = details: cited from earlier work
SMA-like mice = details: cited from earlier work

For CCCC(=O)[O-].[Na+] [sodium butyrate], the “amount of exon 7-containing survival motor neuron (SMN) protein” value (SMA lymphoid cell lines) is listed as “effective at increasing”, the “expression of SMN protein in spinal cord motor neurons” value (SMA-like mice; SMA-like mice) is listed as “increased expression of SMN protein” and the symptoms (SMA-like mice; SMA-like mice) is listed as “improved symptoms”. For the same molecule, the “birth rate of severe types of SMA-like mice” value (SMA-like mice; heterozygous knock-out transgenic SMA-like mice bred) was “decreased the birth rate”.
